ChEMBL document CHEMBL6103578, “Design and synthesis three novel series of derivatives using natural acetylcholinesterase inhibitor-RLMS as template and in vitro, in vivo and in silico activities verification” (Eur J Med Chem, 2025)
Calls of active or inactive are those of the source. The calls are words filed in the database; no cut-off is given here.

Experiments:
[1] = Toxicity in zebrafish assessed as deformaties in animal at 100 uM measured 96 hrs post-fertilization; parameters: species or system Danio rerio; conditions: in vivo
Acetylcholinesterase [2] = biological target: T1, Acetylcholinesterase (Homo sapiens, UniProt P22303); experiment: Mixed competitive inhibition of AChE (unknown origin) at 2 to 8 uM by DTNB assay; conditions: dose 2-8 µM
Acetylcholinesterase [3] = biological target: T1, Acetylcholinesterase; experiment: Binding affinity to AChE (unknown origin) assessed as dissociation constant by MST assay
Danio rerio [4] = organism: Danio rerio; experiment: Anti-alzheimer activity in AlCl3-treated zebrafish assessed as increase in movement distance at 25 to 75 uM treated for 72 hrs with medium replacement containing compound daily by light/dark cycle behavioral test; type: functional, organism-based; conditions: dose 25-75 µM
SH-SY5Y [5] = experiment: Neuroprotective effect against H2O2-induced cell injury in human SH-SY5Y cells assessed as cell survival at 25 uM preincubated for 1 hr followed by H2O2 addition measured after 2 hrs by MTT assay (reference value: 57.76 %); type: functional; conditions: time 3 hrs, read-out: Activity
Danio rerio [6] = organism: Danio rerio; experiment: Anti-alzheimer activity in AlCl3-treated zebrafish assessed as inhibition of apoptosis in brain treated for 72 hrs with medium replacement containing compound daily by AO staining based analysis; type: functional, organism-based; conditions: dose 25-75 µM
[7] = Toxicity in zebrafish assessed as malformation in animal at 100 uM measured 96 hrs post-fertilization; parameters: species or system Danio rerio; conditions: in vivo
SH-SY5Y [8] = experiment: Neuroprotective effect against H2O2-induced cell injury in human SH-SY5Y cells assessed as cell survival at 25 to 100 uM preincubated for 1 hr followed by H2O2 addition measured after 2 hrs by MTT assay (reference value: 57.76 %); type: functional; conditions: dose 25-100 µM, time 3 hrs
Danio rerio [9] = organism: Danio rerio; experiment: Anti-alzheimer activity in AlCl3-treated zebrafish assessed as increase in movement speed at 25 to 75 uM treated for 72 hrs with medium replacement containing compound daily by light/dark cycle behavioral test; type: functional, organism-based; conditions: dose 25-75 µM
[10] = Toxicity in zebrafish assessed as change in heart rate at 1 to 100 uM measured 96 hrs post-fertilization; parameters: species or system Danio rerio; conditions: in vivo, dose 1-100 µM
[11] = Toxicity in zebrafish assessed as decrease in survival rate at 100 uM measured 96 hrs post-fertilization; parameters: species or system Danio rerio; conditions: in vivo
Acetylcholinesterase [12] = biological target: T1, Acetylcholinesterase; experiment: Inhibition of AChE (unknown origin) using ATCI as substrate preincubated for 20 mins followed by substrate addition measured after 30 mins by DTNB assay

T1 sequence (P22303 whole entry): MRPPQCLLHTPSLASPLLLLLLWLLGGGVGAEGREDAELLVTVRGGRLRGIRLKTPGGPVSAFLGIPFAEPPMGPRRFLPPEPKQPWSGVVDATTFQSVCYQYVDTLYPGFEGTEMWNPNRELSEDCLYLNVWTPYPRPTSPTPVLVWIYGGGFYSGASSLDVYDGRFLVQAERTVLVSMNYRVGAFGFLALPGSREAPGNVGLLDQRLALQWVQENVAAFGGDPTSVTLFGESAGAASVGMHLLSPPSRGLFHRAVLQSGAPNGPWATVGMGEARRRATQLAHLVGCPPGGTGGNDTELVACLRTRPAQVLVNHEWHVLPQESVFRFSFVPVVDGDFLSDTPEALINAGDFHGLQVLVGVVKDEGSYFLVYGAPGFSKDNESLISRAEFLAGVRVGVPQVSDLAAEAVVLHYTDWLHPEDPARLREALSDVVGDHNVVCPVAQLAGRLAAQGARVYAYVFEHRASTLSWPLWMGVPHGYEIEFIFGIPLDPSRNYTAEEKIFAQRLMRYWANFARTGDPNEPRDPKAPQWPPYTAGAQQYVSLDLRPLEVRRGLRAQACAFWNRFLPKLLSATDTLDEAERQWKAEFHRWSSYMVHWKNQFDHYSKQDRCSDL

C[C@@H]1CC[C@]2(C(=O)NCc3ccccc3Cl)CC[C@]3(C)C(=CC[C@@H]4[C@@]5(C)C[C@@H](O)[C@H](O)[C@@](C)(CO)[C@@H]5CC[C@]43C)[C@@H]2[C@]1(C)O
Activity [1]: Toxic | inhibition (Acetylcholinesterase [2]): Active | Kd (Acetylcholinesterase [3]): 5.37 µM | Activity (Danio rerio [4]): Active | viability at 25 µM (SH-SY5Y [5]): 80% | Activity (Danio rerio [6]): Dose-dependent-effect | Activity [7]: Toxic | Activity (SH-SY5Y [8]): >57.76% | Activity (Danio rerio [9]): Active | Activity [10]: Non-toxic | Activity [11]: Toxic | IC50 (Acetylcholinesterase [12]): 3.7 µM
